Laboratory results as given in the supplement of paper PMC10307832.

What was measured:
Experiment in all cases: relative viability (nuclei count vs DMSO), 5 days (fraction); higher = more cells survive
A-427 = test system: A-427
Procedure, shortened: (§1)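 Cells from lung cancer lines were seeded into 1536-well plates and, one day later, dosed by pin tool. Treatments were either a single drug or a fixed dose of an anchor drug with five library-drug doses (not always all listed) in √10 steps. After 5 days, nuclei were stained in a one-step fixation (final 0.05% Triton X-100, 1% formaldehyde, 1 ug/ml Hoechst) and counted on 4× images, and relative viability is the treated-to-vehicle nuclei ratio, as the median of duplicate plates.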

COR-L 105 = test system: COR-L 105
Procedure, shortened: as §1

EPLC-272H = test system: EPLC-272H
Procedure, shortened: as §1

HCC-366 = test system: HCC-366
Procedure, shortened: as §1

HCC-78 = test system: HCC-78
Procedure, shortened: as §1

HOP-62 = test system: HOP-62
Procedure, shortened: as §1

LC-2-ad = test system: LC-2-ad
Procedure, shortened: as §1

LU99A = test system: LU99A
Procedure, shortened: as §1

LXF-289 = test system: LXF-289
Procedure, shortened: as §1

NCI-H1666 = test system: NCI-H1666
Procedure, shortened: as §1

NCI-H1792 = test system: NCI-H1792
Procedure, shortened: as §1

NCI-H1793 = test system: NCI-H1793
Procedure, shortened: as §1

NCI-H1915 = test system: NCI-H1915
Procedure, shortened: as §1

NCI-H1944 = test system: NCI-H1944
Procedure, shortened: as §1

NCI-H2009 = test system: NCI-H2009
Procedure, shortened: as §1

NCI-H2085 = test system: NCI-H2085
Procedure, shortened: as §1

NCI-H2170 = test system: NCI-H2170
Procedure, shortened: as §1

NCI-H460 = test system: NCI-H460
Procedure, shortened: as §1

SK-LU-1 = test system: SK-LU-1
Procedure, shortened: as §1

UMC-11 = test system: UMC-11
Procedure, shortened: as §1

Question: How did the relative viability (A-427; first compound 0.01 µM) turn out when O=c1cc(N2CCOCC2)oc2c(-c3cccc4c3sc3ccccc34)cccc12 + CC1(C)CCC(c2ccc(Cl)cc2)=C(CN2CCN(c3ccc(C(=O)NS(=O)(=O)c4ccc(N[C@H](CCN5CCOCC5)CSc5ccccc5)c(S(=O)(=O)C(F)(F)F)c4)cc3)CC2)C1 [Navitoclax] (partner 0.5 µM) was run?
Answer: 0.937

Question: What about the relative viability (A-427; first compound 0.03162 µM) of the same molecule?
Answer: 0.935

Question: What about the relative viability (A-427; first compound 0.1 µM) of the same molecule?
Answer: 0.956

Question: And the relative viability (A-427; first compound 0.3162 µM)?
Answer: 0.866

Question: What about the relative viability (A-427; first compound 1 µM) of the same molecule?
Answer: 0.959

Question: What about the relative viability (COR-L 105; first compound 0.01 µM) of the same molecule?
Answer: 0.91

Question: And the relative viability (COR-L 105; first compound 0.03162 µM)?
Answer: 0.817

Question: And the relative viability (COR-L 105; first compound 0.1 µM)?
Answer: 0.79

Question: And the relative viability (COR-L 105; first compound 0.3162 µM)?
Answer: 0.73

Question: What about the relative viability (COR-L 105; first compound 1 µM) of the same molecule?
Answer: 0.676

Question: And the relative viability (EPLC-272H; first compound 0.01 µM)?
Answer: 1.11

Question: And the relative viability (EPLC-272H; first compound 0.03162 µM)?
Answer: 1.05

Question: And the relative viability (EPLC-272H; first compound 0.3162 µM)?
Answer: 1.04

Question: And the relative viability (EPLC-272H; first compound 1 µM)?
Answer: 1.08

Question: And the relative viability (HCC-366; first compound 0.01 µM)?
Answer: 1.11

Question: What about the relative viability (HCC-366; first compound 0.03162 µM) of the same molecule?
Answer: 1.1

Question: What about the relative viability (HCC-366; first compound 0.1 µM) of the same molecule?
Answer: 1.08

Question: What about the relative viability (HCC-366; first compound 0.3162 µM) of the same molecule?
Answer: 1

Question: What about the relative viability (HCC-366; first compound 1 µM) of the same molecule?
Answer: 1.04

Question: And the relative viability (HCC-78; first compound 0.01 µM)?
Answer: 0.742

Question: And the relative viability (HCC-78; first compound 0.03162 µM)?
Answer: 0.831

Question: And the relative viability (HCC-78; first compound 0.1 µM)?
Answer: 0.756

Question: And the relative viability (HCC-78; first compound 0.3162 µM)?
Answer: 0.755

Question: And the relative viability (HCC-78; first compound 1 µM)?
Answer: 0.843

Question: And the relative viability (HOP-62; first compound 0.01 µM)?
Answer: 0.935

Question: And the relative viability (HOP-62; first compound 0.03162 µM)?
Answer: 1.08

Question: What about the relative viability (HOP-62; first compound 0.1 µM) of the same molecule?
Answer: 1.02

Question: What about the relative viability (HOP-62; first compound 0.3162 µM) of the same molecule?
Answer: 0.854

Question: What about the relative viability (HOP-62; first compound 1 µM) of the same molecule?
Answer: 1.07

Question: What about the relative viability (LC-2-ad; first compound 0.01 µM) of the same molecule?
Answer: 0.646

Question: What about the relative viability (LC-2-ad; first compound 0.1 µM) of the same molecule?
Answer: 0.543

Question: And the relative viability (LC-2-ad; first compound 0.3162 µM)?
Answer: 0.546

Question: What about the relative viability (LC-2-ad; first compound 1 µM) of the same molecule?
Answer: 0.386

Question: And the relative viability (LU99A; first compound 0.01 µM)?
Answer: 0.887

Question: What about the relative viability (LU99A; first compound 0.03162 µM) of the same molecule?
Answer: 0.955

Question: And the relative viability (LU99A; first compound 0.1 µM)?
Answer: 0.884

Question: What about the relative viability (LU99A; first compound 0.3162 µM) of the same molecule?
Answer: 0.773

Question: What about the relative viability (LU99A; first compound 1 µM) of the same molecule?
Answer: 0.898

Question: What about the relative viability (LXF-289; first compound 0.01 µM) of the same molecule?
Answer: 0.924

Question: And the relative viability (LXF-289; first compound 0.03162 µM)?
Answer: 0.937

Question: And the relative viability (LXF-289; first compound 0.1 µM)?
Answer: 0.938

Question: And the relative viability (LXF-289; first compound 0.3162 µM)?
Answer: 0.865

Question: And the relative viability (LXF-289; first compound 1 µM)?
Answer: 0.916

Question: What about the relative viability (NCI-H1666; first compound 0.01 µM) of the same molecule?
Answer: 0.941

Question: And the relative viability (NCI-H1666; first compound 0.03162 µM)?
Answer: 0.899

Question: What about the relative viability (NCI-H1666; first compound 0.1 µM) of the same molecule?
Answer: 0.819

Question: And the relative viability (NCI-H1666; first compound 0.3162 µM)?
Answer: 0.798

Question: What about the relative viability (NCI-H1666; first compound 1 µM) of the same molecule?
Answer: 0.895

Question: And the relative viability (NCI-H1792; first compound 0.01 µM)?
Answer: 0.604

Question: What about the relative viability (NCI-H1792; first compound 0.03162 µM) of the same molecule?
Answer: 0.595

Question: What about the relative viability (NCI-H1792; first compound 0.1 µM) of the same molecule?
Answer: 0.368

Question: What about the relative viability (NCI-H1792; first compound 0.3162 µM) of the same molecule?
Answer: 0.564

Question: And the relative viability (NCI-H1792; first compound 1 µM)?
Answer: 0.556

Question: And the relative viability (NCI-H1793; first compound 0.01 µM)?
Answer: 0.471

Question: What about the relative viability (NCI-H1793; first compound 0.03162 µM) of the same molecule?
Answer: 0.468

Question: What about the relative viability (NCI-H1793; first compound 0.1 µM) of the same molecule?
Answer: 0.54

Question: What about the relative viability (NCI-H1793; first compound 0.3162 µM) of the same molecule?
Answer: 0.367

Question: And the relative viability (NCI-H1793; first compound 1 µM)?
Answer: 0.382

Question: And the relative viability (NCI-H1915; first compound 0.01 µM)?
Answer: 0.792

Question: What about the relative viability (NCI-H1915; first compound 0.03162 µM) of the same molecule?
Answer: 0.788

Question: And the relative viability (NCI-H1915; first compound 0.1 µM)?
Answer: 0.809

Question: And the relative viability (NCI-H1915; first compound 0.3162 µM)?
Answer: 0.779

Question: And the relative viability (NCI-H1915; first compound 1 µM)?
Answer: 0.824

Question: What about the relative viability (NCI-H1944; first compound 0.01 µM) of the same molecule?
Answer: 1.03

Question: And the relative viability (NCI-H1944; first compound 0.03162 µM)?
Answer: 1.1

Question: What about the relative viability (NCI-H1944; first compound 0.1 µM) of the same molecule?
Answer: 1.07

Question: And the relative viability (NCI-H1944; first compound 0.3162 µM)?
Answer: 1.09

Question: And the relative viability (NCI-H1944; first compound 1 µM)?
Answer: 1.05

Question: What about the relative viability (NCI-H2009; first compound 0.01 µM) of the same molecule?
Answer: 1.14

Question: And the relative viability (NCI-H2009; first compound 0.03162 µM)?
Answer: 1.16

Question: What about the relative viability (NCI-H2009; first compound 0.1 µM) of the same molecule?
Answer: 1.14

Question: What about the relative viability (NCI-H2009; first compound 0.3162 µM) of the same molecule?
Answer: 1.19

Question: And the relative viability (NCI-H2009; first compound 1 µM)?
Answer: 1.05

Question: What about the relative viability (NCI-H2085; first compound 0.01 µM) of the same molecule?
Answer: 1.08

Question: And the relative viability (NCI-H2085; first compound 0.03162 µM)?
Answer: 1.19

Question: What about the relative viability (NCI-H2085; first compound 0.1 µM) of the same molecule?
Answer: 1.17

Question: And the relative viability (NCI-H2085; first compound 0.3162 µM)?
Answer: 1.08

Question: And the relative viability (NCI-H2085; first compound 1 µM)?
Answer: 1.02

Question: What about the relative viability (NCI-H2170; first compound 0.01 µM) of the same molecule?
Answer: 0.69

Question: What about the relative viability (NCI-H2170; first compound 0.03162 µM) of the same molecule?
Answer: 0.741

Question: What about the relative viability (NCI-H2170; first compound 0.1 µM) of the same molecule?
Answer: 0.599

Question: And the relative viability (NCI-H2170; first compound 0.3162 µM)?
Answer: 0.62

Question: What about the relative viability (NCI-H2170; first compound 1 µM) of the same molecule?
Answer: 0.605

Question: What about the relative viability (NCI-H460; first compound 0.01 µM) of the same molecule?
Answer: 1.06

Question: And the relative viability (NCI-H460; first compound 0.03162 µM)?
Answer: 1.07

Question: What about the relative viability (NCI-H460; first compound 0.1 µM) of the same molecule?
Answer: 1.28

Question: What about the relative viability (NCI-H460; first compound 0.3162 µM) of the same molecule?
Answer: 1.04

Question: What about the relative viability (NCI-H460; first compound 1 µM) of the same molecule?
Answer: 1.12

Question: What about the relative viability (SK-LU-1; first compound 0.03162 µM) of the same molecule?
Answer: 0.954

Question: What about the relative viability (SK-LU-1; first compound 0.1 µM) of the same molecule?
Answer: 1.1

Question: And the relative viability (SK-LU-1; first compound 0.3162 µM)?
Answer: 1.18

Question: What about the relative viability (SK-LU-1; first compound 1 µM) of the same molecule?
Answer: 0.77

Question: And the relative viability (UMC-11; first compound 0.01 µM)?
Answer: 0.302

Question: What about the relative viability (UMC-11; first compound 0.03162 µM) of the same molecule?
Answer: 0.339

Question: And the relative viability (UMC-11; first compound 0.1 µM)?
Answer: 0.255

Question: And the relative viability (UMC-11; first compound 0.3162 µM)?
Answer: 0.333

Question: What about the relative viability (UMC-11; first compound 1 µM) of the same molecule?
Answer: 0.343
